In US6440443B1, “Microencapsulation formulations of cadusafos” (priority 1998, dated 2002):

Test system: root-knot nematode (RKN), Meloidogyne incognita
Assay: Root-knot nematode control on tomato, pots infested 48 hours after soil treatment (set 1), gall rating
Format: in vivo
Conditions: rating scale 0-10
Experimental: Formulations AA to FF, excluding DD, were tested for efficacy and persistence in soil for controlling root-knot nematode (RKN), Meloidogyne incognita, on tomato. A three-week old tomato (Lycopersicon esculentum, var “Rutgers”) was planted in a 10 cm square pot containing a nonsterile 50:50 sand:soil mixture. Ten replicate pots (five replicates for two sets of tests) were prepared for each rate of application of test formulation. Stock dispersions of each of the test formulations were prepared by dispersing a sufficient amount of test material in 100 ml of water to give rates of application of 0.25, 0.5, 1, and 2 kg a.i./ha. Each pot received 10 ml of the appropriate suspension on the surface immediately around the tomato, and a control treatment for each of the two experimental set of pots received only water. Pots were also prepared as above with the same rates of the 100 ME cadusafos formulation and technical cadusafos. The RKN eggs used in the experiment were separated from a gelatinous matrix by vigorously shaking the roots of heavy galled tomato plants for four minutes in a 1% aqueous sodium hypochlorite solution. The resulting egg suspension was rapidly poured through nested 60, 325, and 500 mesh sieves. The eggs were collected on the 500 mesh sieve and gently rinsed with water to remove any excess sodium hypochlorite. The eggs were taken up in water, and the resulting aqueous suspension was appropriately diluted with water to give about 2000 eggs per plant which results in an effective inoculant level of about 1000 infective larvae per pot. The eggs were counted using a dissecting microscope. All the pots were infested with nematodes by pippetting the inoculum into the openings around the roots of the previously treated tomato transplants. Pots infested with nematodes 48 hours after soil treatment, hereafter referred to as “set 1”. Pots for examination of residual activity, hereafter referred to as “set 2”, were treated and maintained in the greenhouse for seven days prior to nematode infestations. Upon nematode infestation, the pots were maintained in the greenhouse for 28 days and monitored for phytotoxicity symptoms. At the conclusion of the 28 day period, the soil was washed away from the tomato plants roots and rated according to the following scheme: […]

## CCOP(=O)(SC(C)CC)SC(C)CC (stereo not shown) [Technical]
Infested 48 hours after treatment, rate 0.25 Kg/Ha
  Mean Root-Knot Gall Rating: 2.4
Infested 48 hours after treatment, rate 0.5 Kg/Ha
  Mean Root-Knot Gall Rating: 1.2
Second printing of Table 7, 48 hours after treatment, rate 0.25 Kg/Ha
  Mean Root-Knot Gall Rating: 2.4
Second printing of Table 7, 48 hours after treatment, rate 0.5 Kg/Ha
  Mean Root-Knot Gall Rating: 1.2
